# Results reported in US20260137642A1 (CANCER PREVENTION PHARMACEUTICALS, INC., priority 2021, published 2026).
# How the values were obtained:
# islet replication = conditions: in vitro; cited from earlier work
# urinary polyamines = assay: Phase I/II trial in new onset T1D: urinary polyamines (first morning urine, HPLC); type: in vivo, human; conditions: 3 months
# Experimental: This study was double-blind, placebo-controlled, 2:1 random assigned, phase I/II clinic trial for individuals with type 1 diabetes. The blinded dose-ranging study enrolled persons with new onset T1D with documented continued residual C-peptide production. […] After a 3 month wash-out period, the durability of effect was assessed. [table]
# T cells = conditions: mice; cited from earlier work
# RINm5F insulinoma cells = conditions: cited from earlier work
# [1] = tested on: APC-dependent intestinal tumorigenesis; conditions: mice; cited from earlier work
# ODC enzyme activity = target: T1, ODC enzyme activity (Homo sapiens, UniProt P11926); conditions: oral, daily, humans; cited from earlier work
# T1 construct: from tissue; host or cells: human epithelial tissues (in vivo, oral dosing); finding cited from the literature
# T1 sequence (P11926 1-461): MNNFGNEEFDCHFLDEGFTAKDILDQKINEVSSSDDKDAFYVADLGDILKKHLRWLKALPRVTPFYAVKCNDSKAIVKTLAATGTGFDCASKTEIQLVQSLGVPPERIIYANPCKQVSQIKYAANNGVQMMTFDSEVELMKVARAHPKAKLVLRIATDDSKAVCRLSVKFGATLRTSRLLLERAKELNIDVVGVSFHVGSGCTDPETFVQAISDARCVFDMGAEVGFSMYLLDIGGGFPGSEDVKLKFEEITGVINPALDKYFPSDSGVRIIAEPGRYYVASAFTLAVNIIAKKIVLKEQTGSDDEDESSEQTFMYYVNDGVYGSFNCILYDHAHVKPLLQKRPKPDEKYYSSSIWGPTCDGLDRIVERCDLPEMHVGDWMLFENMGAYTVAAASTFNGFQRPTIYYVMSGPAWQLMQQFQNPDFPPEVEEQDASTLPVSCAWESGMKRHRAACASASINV
# β cell function = conditions: mouse models including the NOD mouse; cited from earlier work
compound,measurement,setting,value
"NCCCC(N)(C(=O)O)C(F)F (centres unmarked) [eflornithine, 2,5-diamino-2-(difluoromethyl) pentanoic acid]",Effect on islet replication,islet replication,little effect on islet replication
same,Change in urinary polyamines with increasing drug dose across groups,urinary polyamines; 125-1000 mg/m^2,Decreases in urinary polyamines
same,"3-month urinary Decarboxylated AdoMet, Least Square Means",urinary polyamines; Drug Dose 125,133.0 µmol/g
same,"3-month urinary Putrescine, Least Square Means",urinary polyamines; Drug Dose 125,127.9 µmol/g
same,"3-month urinary Decarboxylated AdoMet, Least Square Means",urinary polyamines; Drug Dose 250,87.7 µmol/g
same,"3-month urinary Putrescine, Least Square Means",urinary polyamines; Drug Dose 250,78.0 µmol/g
same,"3-month urinary Decarboxylated AdoMet, Least Square Means",urinary polyamines; Drug Dose 500,114.3 µmol/g
same,"3-month urinary Putrescine, Least Square Means",urinary polyamines; Drug Dose 500,41.8 µmol/g
same,"3-month urinary Decarboxylated AdoMet, Least Square Means",urinary polyamines; Drug Dose 750,116.0 µmol/g
same,"3-month urinary Putrescine, Least Square Means",urinary polyamines; Drug Dose 750,56.6 µmol/g
same,"3-month urinary Decarboxylated AdoMet, Least Square Means",urinary polyamines; Drug Dose 1000,165.7 µmol/g
same,"3-month urinary Putrescine, Least Square Means",urinary polyamines; Drug Dose 1000,35.7 µmol/g
same,Effect on T cells,T cells,deplete T cells
same,Insulin content and secretion,RINm5F insulinoma cells,improves insulin content and secretion
same,APC-dependent intestinal tumorigenesis,[1],decrease APC-dependent intestinal tumorigenesis
same,ODC enzyme activity and polyamine contents in epithelial tissues,ODC enzyme activity,inhibits ODC enzyme activity and polyamine contents
same,β cell function and diabetes onset,β cell function,preserves β cell function and delays diabetes onset
